Experimental data from patent publication US20230093099A1, “COMPOUNDS AND METHODS OF TREATING CANCERS” (CULLGEN (SHANGHAI), INC., priority 2019, published 2023).
pIC50: −log10 of the molar value.

The compounds below were run on RS4;11 cells (assay: Cell viability assay (CellTiter-Glo) in RS4;11 cells). Conditions: Homo sapiens, 72 h; RS4;11 cells; cell viability, 3 days, CellTiter-Glo; read-out: IC50.
Format: cell-based
Protocol: Specific exemplary heterobifunctional compounds were first characterized using cell viability assays. RS4;11 ALL cells were treated with bifunctional degraders for three days. The IC50 values ranged from 2 nM to over 10 uM.
MV4;11, RS4;11, Kasumi-1, HEL and other cells were treated with NVP-BSK805, TG101209 or selected degraders for 3 days at indicated concentrations following a 3-fold serial dilution.
HEL, RS4;11, MV4;11, Kasumi-1 and other cells were cultured at 37° C. with 5% CO2 in RPMI 1640 or DMEM Medium supplemented with 10% fetal bovine serum. Cells were authenticated using the short tandem repeat (STR) assays. Mycoplasma test results were negative.
Cells were seeded at a density of 5000 cells per well in 96-well assay plates and treated with test compounds following a 8-point or 12-point 3-fold serial dilution. Three days later, cell viability was determined using the CellTiter-Glo assay kit according to the manufacturer's instructions. The dose-response curves were determined and IC50 values were calculated using the GraphPad Prism software following a nonlinear regression (least squares fit) method.
Work on `Cc1cnc(Nc2ccc(N3CCN(CC(=O)NCCOCCOCCOCCOCCC(=O)NC(C(=O)N4C[C@H](O)C[C@H]4C(=O)NCc4ccc(-c5scnc5C)cc4)C(C)(C)C)CC3)cc2)nc1Nc1cccc(S(=O)(=O)NC(C)(C)C)c1` (stereo in doubt) [JA-222, (2S,4R)-1-((S)-20-(tert-butyl)-1-(4-(4-((4-((3-(N-(tert-butyl)sulfamoyl)phenyl)amino)-5-methylpyrimidin-2-yl)amino)phenyl)piperazin-1-yl)-2,18-dioxo-6,9,12,15-tetraoxa-3,19-diazahenicosan-21-oyl)-4-hydroxy-N-(4-(4-methylthiazol-5-yl)benzyl)pyrrolidine-2-carboxamide] yielded a pIC50 of under 5.00. Compound `O=C1CCC(N2C(=O)c3cccc(NCCCCCC(=O)N4CCC(n5cc(-c6cnc7cccc(-c8cc(F)c(CN9CCOCC9)c(F)c8)c7n6)cn5)CC4)c3C2=O)C(=O)N1` (stereo not drawn) [JA-001, 4-[[6-[4-[4-[8-[3,5-Difluoro-4-(morpholinomethyl)phenyl]quinoxalin-2-yl]pyrazol-1-yl]-1-piperidyl]-6-oxo-hexyl]amino]-2-(2,6-dioxo-3-piperidyl)isoindoline-1,3-dione] has a pIC50 of 5.50. For `O=C1CCC(N2C(=O)c3cccc(NCC(=O)N4CCC(n5cc(-c6cnc7cccc(-c8cc(F)c(CN9CCOCC9)c(F)c8)c7n6)cn5)CC4)c3C2=O)C(=O)N1` (stereo not drawn) [JA-002, 4-[[2-[4-[4-[8-[3,5-Difluoro-4-(morpholinomethyl)phenyl]quinoxalin-2-yl]pyrazol-1-yl]-1-piperidyl]-2-oxo-ethyl]amino]-2-(2,6-dioxo-3-piperidyl)isoindoline-1,3-dione], the pIC50 was 5.26. Compound `O=C1CCC(N2C(=O)c3cccc(NCCCCC(=O)N4CCC(n5cc(-c6cnc7cccc(-c8cc(F)c(CN9CCOCC9)c(F)c8)c7n6)cn5)CC4)c3C2=O)C(=O)N1` (stereo not drawn) [JA-003, 4-[[5-[4-[4-[8-[3,5-Difluoro-4-(morpholinomethyl)phenyl]quinoxalin-2-yl]pyrazol-1-yl]-1-piperidyl]-5-oxo-pentyl]amino]-2-(2,6-dioxo-3-piperidyl)isoindoline-1,3-dione] has a pIC50 of 5.18. In the case of `O=C1CCC(N2C(=O)c3cccc(NCCC(=O)N4CCC(n5cc(-c6cnc7cccc(-c8cc(F)c(CN9CCOCC9)c(F)c8)c7n6)cn5)CC4)c3C2=O)C(=O)N1` (stereo not drawn) [JA-004, 4-[[3-[4-[4-[8-[3,5-Difluoro-4-(morpholinomethyl)phenyl]quinoxalin-2-yl]pyrazol-1-yl]-1-piperidyl]-3-oxo-propyl]amino]-2-(2,6-dioxo-3-piperidyl)isoindoline-1,3-dione], the pIC50 was 5.48. `O=C1CCC(N2C(=O)c3cccc(NCCCC(=O)N4CCC(n5cc(-c6cnc7cccc(-c8cc(F)c(CN9CCOCC9)c(F)c8)c7n6)cn5)CC4)c3C2=O)C(=O)N1` (stereo not drawn) [JA-005, 4-[[4-[4-[4-[8-[3,5-Difluoro-4-(morpholinomethyl)phenyl]quinoxalin-2-yl]pyrazol-1-yl]-1-piperidyl]-4-oxo-butyl]amino]-2-(2,6-dioxo-3-piperidyl)isoindoline-1,3-dione] showed a pIC50 of 6.29. `Cc1cnc(Nc2ccc(N3CCN(C(=O)CNc4cccc5c4C(=O)N(C4CCC(=O)NC4=O)C5=O)CC3)cc2)nc1Nc1cccc(S(=O)(=O)NC(C)(C)C)c1` (stereo not drawn) [JA-006, N-(tert-Butyl)-3-((2-((4-(4-((2-(2,6-dioxopiperidin-3-yl)-1,3-dioxoisoindolin-4-yl)glycyl)piperazin-1-yl)phenyl)amino)-5-methylpyrimidin-4-yl)amino)benzenesulfonamide] was tested, and the pIC50 was under 5.00. Compound `Cc1cnc(Nc2ccc(N3CCN(C(=O)CCCCCNc4cccc5c4C(=O)N(C4CCC(=O)NC4=O)C5=O)CC3)cc2)nc1Nc1cccc(S(=O)(=O)NC(C)(C)C)c1` (stereo not drawn) [JA-007, N-(tert-Butyl)-3-((2-((4-(4-(6-((2-(2,6-dioxopiperidin-3-yl)-1,3-dioxoisoindolin-4-yl)amino)hexanoyl)piperazin-1-yl)phenyl)amino)-5-methylpyrimidin-4-yl)amino)benzenesulfonamide] has a pIC50 of under 5.00. For `Cc1cnc(Nc2ccc(N3CCN(C(=O)CCCNc4cccc5c4C(=O)N(C4CCC(=O)NC4=O)C5=O)CC3)cc2)nc1Nc1cccc(S(=O)(=O)NC(C)(C)C)c1` (stereo not drawn) [JA-008, N-(tert-Butyl)-3-((2-((4-(4-(4-((2-(2,6-dioxopiperidin-3-yl)-1,3-dioxoisoindolin-4-yl)amino)butanoyl)piperazin-1-yl)phenyl)amino)-5-methylpyrimidin-4-yl)amino)benzenesulfonamide], the pIC50 was 5.83. Compound `Cc1cnc(Nc2ccc(N3CCN(C(=O)CCNc4cccc5c4C(=O)N(C4CCC(=O)NC4=O)C5=O)CC3)cc2)nc1Nc1cccc(S(=O)(=O)NC(C)(C)C)c1` (stereo not drawn) [JA-009, N-(tert-Butyl)-3-((2-((4-(4-(3-((2-(2,6-dioxopiperidin-3-yl)-1,3-dioxoisoindolin-4-yl)amino)propanoyl)piperazin-1-yl)phenyl)amino)-5-methylpyrimidin-4-yl)amino)benzenesulfonamide] has a pIC50 of 5.59. In the case of `CS(=O)(=O)c1ccc(-c2cccc3nc(Nc4ccc(N5CCN(C(=O)CCCNc6cccc7c6C(=O)N(C6CCC(=O)NC6=O)C7=O)CC5)cc4)nn23)cc1` (stereo not drawn) [JA-010, 2-(2,6-Dioxopiperidin-3-yl)-4-((4-(4-(4-((5-(4-(methylsulfonyl)phenyl)-[1,2,4]triazolo[1,5-a]pyridin-2-yl)amino)phenyl)piperazin-1-yl)-4-oxobutyl)amino)isoindoline-1,3-dione], the pIC50 was under 5.00. Compound `CS(=O)(=O)c1ccc(-c2cccc3nc(Nc4ccc(N5CCN(C(=O)CCCCNc6cccc7c6C(=O)N(C6CCC(=O)NC6=O)C7=O)CC5)cc4)nn23)cc1` (stereo not drawn) [JA-011, 2-(2,6-Dioxo-piperidin-3-yl)-4-[5-(4-{4-[5-(4-methanesulfonyl-phenyl)-[1,2,4]triazolo[1,5-a]pyridin-2-ylamino]-phenyl}-piperazin-1-yl)-5-oxo-pentylamino]-isoindole-1,3-dione] has a pIC50 of 5.52. For `CS(=O)(=O)c1ccc(-c2cccc3nc(Nc4ccc(N5CCN(C(=O)CCNc6cccc7c6C(=O)N(C6CCC(=O)NC6=O)C7=O)CC5)cc4)nn23)cc1` (stereo not drawn) [JA-012, 2-(2,6-Dioxo-piperidin-3-yl)-4-[3-(4-{4-[5-(4-methanesulfonyl-phenyl)-[1,2,4]triazolo[1,5-a]pyridin-2-ylamino]-phenyl}-piperazin-1-yl)-3-oxo-propylamino]-isoindole-1,3-dione], the pIC50 was 5.33. With `CS(=O)(=O)c1ccc(-c2cccc3nc(Nc4ccc(N5CCN(C(=O)CCCCCNc6cccc7c6C(=O)N(C6CCC(=O)NC6=O)C7=O)CC5)cc4)nn23)cc1` (stereo not drawn) [JA-013, 2-(2,6-Dioxo-piperidin-3-yl)-4-[6-(4-{4-[5-(4-methanesulfonyl-phenyl)-[1,2,4]triazolo[1,5-a]pyridin-2-ylamino]-phenyl}-piperazin-1-yl)-6-oxo-hexylamino]-isoindole-1,3-dione] the pIC50 was under 5.00. `CS(=O)(=O)c1ccc(-c2cccc3nc(Nc4ccc(N5CCN(C(=O)CNc6cccc7c6C(=O)N(C6CCC(=O)NC6=O)C7=O)CC5)cc4)nn23)cc1` (stereo not drawn) [JA-014, 2-(2,6-Dioxo-piperidin-3-yl)-4-[2-(4-{4-[5-(4-methanesulfonyl-phenyl)-[1,2,4]triazolo[1,5-a]pyridin-2-ylamino]-phenyl}-piperazin-1-yl)-2-oxo-ethylamino]-isoindole-1,3-dione] showed a pIC50 of 5.48.
